According to patent publication US12441710B2, “Substituted piperidino compounds and related methods of treatment” (Alkermes, Inc., priority 2020, dated 2025):

Columns and labels:
[1] = Hepatocytes stability assay (human hepatocytes); assay type: in vitro ADME; details: both sexes, cryopreserved hepatocytes, 1 μM test compound, 1×10^6 cell/mL, read-out: CLint (μL/min/million cells)
Experimental: (§1) In vitro metabolic stability was assessed using cryopreserved hepatocytes from male Sprague Dawley rats and a pool of 50 mixed gender humans (BioIVT, Baltimore, MD). The incubation mixtures were prepared by mixing 250 μL of pre-warmed KHB (Krebs-Henseleit buffer) containing 2×10^6 cell/mL of hepatocytes with 250 μL of pre-warmed KHB buffer containing 2 μM of test compounds in a 48-well plate, giving a final concentration of 1 μM test compound (0.1% DMSO) and 1×10^6 cell/mL of hepatocytes. The reaction mixture was incubated at 37 degrees C. A 50 μL aliquot of incubation mixture was taken at time points (0, 15, 30, 60, 120 and 240 minutes) and transferred into a 96-well plate containing 300 μL ice-cold acetonitrile (containing 30 ng/mL of labetalol and 10 ng/mL of Naltrexone-d3 as internal standards) and immediately placed in ice to terminate the reaction. Samples were centrifuged, and supernatants were transferred into 96-well plates for liquid chromatography with tandem mass spectrometry (LC-MS/MS) analysis to monitor the depletion of the test compound. Data was calculated as percent remaining by assuming zero-minute time point peak area ratio (analyte/IS) as 100% and dividing remaining time point peak area ratios by zero-minute time point peak area ratio. Data were fitted to a first-order decay model to determine half-life. From a plot of log (ln) peak area against time, the slope of the line was determined. Subsequently, half-life (T1/2) and intrinsic clearance (CLint) were calculated using the equations below: • Elimination rate constant (k)=(−slope) • Half-life (T1/2) min=0.693/k • Intrinsic Clearance (CLint) (mL/min/million cells)=(V×0.693)/T1/2 • V=incubation volume mL/number of cells The in vitro T1/2 was converted to in vitro intrinsic clearance (CLint,hep) in units of mL/min/kg using the formula shown below: The in vitro intrinsic clearance (CLint,hep) was scaled to in vivo hepatic clearance (CL,hep) using the following equation which was adapted from a well-stirred model. [formula] where Q is the liver blood flow and fu is the fraction unbound (assumed to be unity in this case). All parameters used in the calculation are shown below (Table 4). The extraction ratio (ER) was calculated by dividing the hepatic clearance of a compound to the liver blood flow. The data reported in Table 5 were obtained according to the human hepatocytes stability assay described above.

human hepatocytes = assay: Hepatocytes stability assay (human hepatocytes); assay type: in vitro ADME; details: hepatic clearance divided by liver blood flow, fu assumed unity
Experimental: as §1

[2] = target: T1, human orexin-2 receptor (OX2R) (Homo sapiens, UniProt O43614); assay: Human OX2R IP1 assay; assay type: cell-based; details: T-Rex CHO cells stably overexpressing human OX2R; IP1 accumulation, 1 hr at 37 degrees C
T1 construct: expressed in transfected cells
T1 sequence (O43614 1-444): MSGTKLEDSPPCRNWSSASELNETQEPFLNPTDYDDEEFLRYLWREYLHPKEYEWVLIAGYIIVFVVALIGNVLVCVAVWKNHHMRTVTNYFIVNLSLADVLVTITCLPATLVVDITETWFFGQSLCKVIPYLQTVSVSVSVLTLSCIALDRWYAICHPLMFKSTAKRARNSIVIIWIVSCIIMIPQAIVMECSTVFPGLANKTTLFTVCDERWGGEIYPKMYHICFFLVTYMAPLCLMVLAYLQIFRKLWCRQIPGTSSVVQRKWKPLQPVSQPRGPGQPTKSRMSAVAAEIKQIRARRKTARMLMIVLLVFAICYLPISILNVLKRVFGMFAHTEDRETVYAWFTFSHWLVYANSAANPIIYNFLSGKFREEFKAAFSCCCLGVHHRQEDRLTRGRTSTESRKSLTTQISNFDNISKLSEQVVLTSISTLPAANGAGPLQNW
Experimental: T-Rex CHO cells stably overexpressing the human orexin-2 receptor (OX2R) were induced overnight with 1 μg/mL of doxycycline in a T225 flask. 24 hours post induction, cells were lifted with accutase and plated into a 384-well proxy plate at 30,000 cells/well. Cells were then treated with different test compounds in 1× stimulation buffer containing 10 mM Hepes, 1 mM CaCl2), 0.5 mM MgCl2, 4.2 mM KCl, 146 mM NaCl, 5.5 mM glucose, and 50 mM LiCl, pH 7.4, for 1 hr at 37 degrees C. Following incubation, the reaction was terminated by the addition of detection mix, which is composed of IP1-d2 and anti-IP1-cryptate diluted in lysis buffer as well as 1× stimulation buffer. The plates were allowed to incubate for 1 hour at room temperature and were then read in the EnVision® multimode plate reader, measuring inositol phosphate levels.
Cisbio IP1 is a cell-based functional assay quantifying the accumulation of inositol monophosphate (IP), a metabolite released as a result of orexin 2 receptor activation through the phospholipase C-Gq signaling pathway. This is a competitive immunoassay in which the IP1 produced by the cells upon receptor activation competes with the IP1 analog coupled to the d2 fluorophore (acceptor) for binding to an anti-IP1 monoclonal antibody labeled with Eu cryptate (donor). The measured HTRF-FRET based signal is inversely proportional to the IP1 concentration produced.
The EC50 values reported in Table 2 were obtained according to the human OX2R IP1 assay described above. Data are the mean EC50 values±S.E.M. The compound methyl (2R,3S)-3-((methylsulfonyl)amino)-2-(((cis-4-phenylcyclohexyl)oxy)methyl)-piperidine-1-carboxylate (sometimes referred to herein as Reference Compound A) is a reference compound which is disclosed in Example 5 of PCT publication no. WO2017/135306.

| Structure (SMILES) | EC50 [2] [nM] | other results |
| --- | --- | --- |
| CS(=O)(=O)N[C@H]1CCN(c2ccccn2)CC1COC1CCC(c2ccccn2)CC1 (some centres unmarked) [Compound 2] | – | hepatocyte CLint at 1 μM [1]: 53 µL/min/1e6 cells; Extraction Ratio (ER) (human hepatocytes): 0.89 |
| CS(=O)(=O)N[C@H]1CCN(c2ccccn2)C[C@H]1CO[C@H]1CC[C@@H](c2ccccn2)CC1 [Compound 2] | < 100 | – |
| CS(=O)(=O)N[C@H]1CCN(c2ccccn2)C[C@H]1CO[C@H]1CC[C@@H](c2cccnc2)CC1 [Compound 3] | < 100 | – |
| CS(=O)(=O)N[C@H]1CCN(c2ccccn2)C[C@H]1CO[C@H]1CC[C@@H](c2ccncc2)CC1 [Compound 4] | < 100 | – |
| CS(=O)(=O)N[C@H]1CCN(c2ccccn2)C[C@H]1CO[C@H]1CC[C@@H](c2ccccc2F)CC1 [Compound 5] | < 100 | – |
| CS(=O)(=O)N[C@H]1CCN(c2ccccn2)C[C@H]1CO[C@H]1CC[C@@H](c2ccc(F)cc2)CC1 [Compound 7] | < 100 | – |
| CS(=O)(=O)N[C@H]1CCN(c2ccccn2)C[C@H]1CO[C@H]1CC[C@@H](c2ccncn2)CC1 [Compound 8] | > 1000 | – |
| CS(=O)(=O)N[C@H]1CCN(c2ccccn2)C[C@H]1CO[C@H]1CC[C@@H](c2cnccn2)CC1 [Compound 9] | > 1000 | – |
| CS(=O)(=O)N[C@H]1CCN(c2ccccn2)C[C@H]1CO[C@H]1CC[C@@H](c2ccccc2)CC1 [Compound 10] | < 100 | – |
| CS(=O)(=O)N[C@H]1CCN(c2ccccn2)C[C@H]1CO[C@H]1CC[C@@H](c2ncccn2)CC1 [Compound 11] | > 1000 | – |
| CS(=O)(=O)N[C@H]1CCN(c2ccccn2)C[C@H]1CO[C@H]1CC[C@@H](c2cncnc2)CC1 [Compound 12] | > 1000 | – |
| CS(=O)(=O)N[C@H]1CCN(c2ccccn2)C[C@H]1CO[C@H]1CC[C@@H](c2ccnnc2)CC1 [Compound 13] | > 1000 | – |
| CS(=O)(=O)N[C@H]1CCN(c2ccccn2)C[C@H]1CO[C@H]1CC[C@@H](c2cccnn2)CC1 [Compound 14] | > 1000 | – |
| Cc1ccccc1[C@H]1CC[C@@H](OC[C@@H]2CN(c3ccccn3)CC[C@@H]2NS(C)(=O)=O)CC1 [Compound 15] | < 100 | – |
| Cc1cccc([C@H]2CC[C@@H](OC[C@@H]3CN(c4ccccn4)CC[C@@H]3NS(C)(=O)=O)CC2)c1 [Compound 16] | < 100 | – |
| Cc1cccc([C@H]2CC[C@@H](OC[C@@H]3CN(c4ccccn4)CC[C@@H]3NS(C)(=O)=O)CC2)c1C [Compound 17] | < 100 | – |
| Cc1cc(C)cc([C@H]2CC[C@@H](OC[C@@H]3CN(c4ccccn4)CC[C@@H]3NS(C)(=O)=O)CC2)c1 [Compound 18] | < 100 | – |
| CS(=O)(=O)N[C@H]1CCN(c2ncccn2)C[C@H]1CO[C@H]1CC[C@@H](c2ccccc2)CC1 [Compound 19] | < 100 | – |
| CS(=O)(=O)N[C@H]1CCN(c2ccncn2)C[C@H]1CO[C@H]1CC[C@@H](c2ccccc2)CC1 [Compound 20] | < 100 | – |
| CS(=O)(=O)N[C@H]1CCN(c2cnccn2)C[C@H]1CO[C@H]1CC[C@@H](c2ccccc2)CC1 [Compound 21] | < 100 | – |

| Structure (SMILES) | EC50 [2] [nM] | other results |
| --- | --- | --- |
| CS(=O)(=O)N[C@H]1CCN(c2cccnn2)C[C@H]1CO[C@H]1CC[C@@H](c2ccccc2)CC1 [Compound 22] | < 100 | – |
| CS(=O)(=O)N[C@H]1CCN(c2cccc(F)n2)C[C@H]1CO[C@H]1CC[C@@H](c2ccccc2)CC1 [Compound 23] | < 100 | – |
| CS(=O)(=O)N[C@H]1CCN(c2ccc(F)cn2)C[C@H]1CO[C@H]1CC[C@@H](c2ccccc2)CC1 [Compound 24] | < 100 | – |
| CS(=O)(=O)N[C@H]1CCN(c2ncccc2F)C[C@H]1CO[C@H]1CC[C@@H](c2ccccc2)CC1 [Compound 26] | < 100 | – |
| CS(=O)(=O)N[C@H]1CCN(c2ncccc2O)C[C@H]1CO[C@H]1CC[C@@H](c2ccccc2)CC1 [Compound 27] | < 100 | – |
| CS(=O)(=O)N[C@H]1CCN(c2ncccc2C(F)(F)F)C[C@H]1CO[C@H]1CC[C@@H](c2ccccc2)CC1 [Compound 28] | < 100 | – |
| C[C@@]1(CO[C@H]2CC[C@@H](c3ccccc3)CC2)CN(c2ccccn2)CC[C@@H]1NS(C)(=O)=O [Compound 29] | < 100 | – |
| CS(=O)(=O)N[C@H]1CCN(c2ccccn2)C[C@H]1CO[C@H]1CC[C@@H](c2ccccc2O)CC1 [Compound 30] | 100 to 1000 | – |
| CS(=O)(=O)N[C@H]1CCN(c2ccccn2)C[C@H]1CO[C@H]1CC[C@@H](c2cccc(O)c2)CC1 [Compound 31] | < 100 | – |
| CS(=O)(=O)N[C@H]1CCN(c2ccccn2)C[C@H]1CO[C@H]1CC[C@@H](c2ccc(O)cc2)CC1 [Compound 32] | < 100 | – |
| CS(=O)(=O)N[C@H]1CCN(c2ccccn2)C[C@H]1CO[C@H]1CC[C@@H](c2cccc(C(F)(F)F)c2)CC1 [Compound 33] | 100 to 1000 | – |
| CS(=O)(=O)N[C@H]1CCN(c2ccccn2)C[C@H]1CO[C@H]1CC[C@@H](c2cccc(C#N)c2)CC1 [Compound 35] | < 100 | – |
| CS(=O)(=O)N[C@H]1CCN(Cc2ccccc2)C[C@H]1CO[C@H]1CC[C@@H](c2ccccc2)CC1 [Compound 36] | > 1000 | – |
| CS(=O)(=O)N[C@H]1CCN(Cc2ccccn2)C[C@H]1CO[C@H]1CC[C@@H](c2ccccc2)CC1 [Compound 39] | > 1000 | – |
| CS(=O)(=O)N[C@H]1CCN(Cc2cccnc2)C[C@H]1CO[C@H]1CC[C@@H](c2ccccc2)CC1 [Compound 40] | > 1000 | – |
| CS(=O)(=O)N[C@H]1CCN(Cc2ccncc2)C[C@H]1CO[C@H]1CC[C@@H](c2ccccc2)CC1 [Compound 41] | > 1000 | – |
| CS(=O)(=O)N[C@H]1CCN(c2cccc3ccnn23)C[C@H]1CO[C@H]1CC[C@@H](c2ccccc2)CC1 [Compound 42] | > 1000 | – |
| CS(=O)(=O)N[C@H]1CCN(c2cccc3ncnn23)C[C@H]1CO[C@H]1CC[C@@H](c2ccccc2)CC1 [Compound 43] | > 1000 | – |
| CS(=O)(=O)N[C@H]1CCN(c2nccc3ncnn23)C[C@H]1CO[C@H]1CC[C@@H](c2ccccc2)CC1 [Compound 44] | 100 to 1000 | – |
| CS(=O)(=O)N[C@H]1CCN(c2nccc3ocnc23)C[C@H]1CO[C@H]1CC[C@@H](c2ccccc2)CC1 [Compound 45] | < 100 | – |
